Laboratory results as given in patent US9187410B2, “Process for isolating tigecycline and tigecycline made therefrom” (Hovione Inter Limited, priority 2009, dated 2015).

Key:
Assay type in all cases: physicochemical
[1] = Dynamic Vapour Sorption (DVS) water uptake; details: 25° C.
Procedure: We also have performed Dynamic Vapour Sorption studies (DVS) and these studies have shown that samples of tigecycline isolated by spray drying and by lyophilzation have distinctive hygroscopic behavior. […] The DVS conditions were as follows: temperature-25° C.; equilibrium criteria 0.00% w/w every 10 min; maximum equilibrium time—120 min; start RH—5%; maximum RH—95%; steps—10%. A vapor sorption analyzer (VTI-SGA 100) was used. […] The difference in the water uptake between the two forms increases with RH for most of the isotherm. By RH we mean relative humidity, the amount of water vapor that exists in a gaseous mixture of air and water. At 45% humidity, the spray dried sample takes up 2.9% w/w water and lyophilized sample 3.9% w/w water. At 95% humidity, the difference is even more evident: the spray dried form takes up 22.6% w/w water and the lyophilized form 24.5% w/w water. The form obtained by lyophilization is more hygroscopic than the form obtained by spray drying.

[2] = Modulated differential scanning calorimetry (mDSC/DSC) of amorphous tigecycline; details: unstressed sample; for glass transition temperature (Tg): mDSC, 25° C. to 300° C. at 3° C./min
Procedure: The DSC apparatus used was a DSC Q200 from TA Instruments, using the following settings: method—from 25° C. to 300° C. at 3° C./min; modulate +/−0.50° C. every 40 seconds. In addition to a higher Tg value, spray dried tigecycline also crystallizes and melts (after crossing the glass transition) at higher temperature than lyophilized tigecycline. By Tg we mean the critical temperature at which the material changes its behaviour from being ‘glassy’ to being ‘rubbery’. ‘Glassy’ in this context means hard and brittle (and therefore relatively easy to break), while ‘rubbery’ means elastic and flexible.

[3] = DSC after fast stress conditions (oven at 100° C. for 24 hours); details: after 24 hours at 100° C.
Procedure: The DSC apparatus used was a DSC Q200 from TA Instruments, using the following settings: method—from 25° C. to 300° C. at 3° C./min; modulate +/−0.50° C. every 40 seconds. Spray dried tigecycline and lyophilized tigecycline were submitted to fast stress conditions by placing the samples in an oven at 100° C. for 24 hours. The reversible and total flow DSC curves for the stressed samples were then measured and the results are presented in FIG. 4 and FIG. 5 respectively.

water uptake ([1]; 45% humidity, listed as lyophilized sample) [% w/w]	water uptake ([1]; 95% humidity, listed as lyophilized form) [% w/w]	glass transition temperature (Tg) ([2]; listed as lyophilized compound of formula [1]) [°C]	water uptake ([1]; 45% humidity, listed as spray dried sample) [% w/w]	water uptake ([1]; 95% humidity, listed as spray dried form) [% w/w]	glass transition temperature (Tg) ([2]; listed as amorphous compound of formula [1] obtained by spray drying) [°C]	crystallisation temperature ([2]; total heat flow DSC) [°C]	crystallization temperature after stress [3] [°C]	glass transition temperature after stress [3] [°C]	SMILES
3.9	24.5	126							CN(C)c1cc(NC(=O)CNC(C)(C)C)c(O)c2c1C[C@H]1C[C@H]3[C@H](N(C)C)C(O)=C(C(N)=O)C(=O)[C@@]3(O)C(O)=C1C2=O [lyophilized tigecycline, tigecycline]
			2.9	22.6	129	≥ 146	≥ 154	≥ 143	CN(C)c1cc(NC(=O)CNC(C)(C)C)c(O)c2c1C[C@H]1C[C@H]3[C@H](N(C)C)C(O)=C(C(N)=O)C(=O)[C@@]3(O)C(O)=C1C2=O [spray dried tigecycline, tigecycline]
